From paper PMC7998250, “Temperate Zone Plant Natural Products—A Novel Resource for Activity against Tropical Parasitic Diseases” (Pharmaceuticals, 2021)
Where two headings read alike, the source gives them in different places.

What was measured:
[1] = system: 700022-resistant line of L. mexicana (r22) axenic amastigotes; test: EC50 in 700022-resistant L. mexicana (r22) axenic amastigotes; format: cell-based, Leishmania mexicana; details: for EC50: Leishmania mexicana, read-out: r22 28 weeks EC50, r22 after 28 weeks of 700022 selection pressure; for r22 28 weeks RI (resistance index, EC50 in r22/EC50 in WT): 28 weeks of 700022 selection pressure
Description: A 700022-resistant line of L. mexicana (r22) was generated using a previously reported method (Figure S3). […] All leishmanicidal sterols identified were assayed against r22 after 8 weeks of 700022 pressure and cross-resistance was found against all four compounds, each with a similar resistance index of between 4–5 (Figure 6c). Following 28 weeks of selection, the morphology of the r22 promastigotes was compared to that of WT (Figure 6d). […] The body area of both promastigotes and amastigotes was also assessed, noting a small (c 20%) decrease in the body area of r22 parasites compared to WT strains (Figure S3).
Figure 6 Comparison between wildtype and 700022-resistant (r22) L. mexicana cell lines. Log concentration versus normalised (compared to untreated control) growth curves for wildtype (WT) and corresponding 700022-selected (r22) L. mexicana (a) promastigotes and (b) axenic amastigotes. Error bars represent upper and lower limits of the StDev (n = 9). […] The resistance index (EC50 in r22/EC50 in WT) are shown for each compound. (d) Scanning electron micrographs of WT and r22 promastigotes illustrating the shortened flagellum in r22 parasites. (e) Analysis of flagellum length in WT and r22 promastigotes (n = 287 of each strain) reported using a box and whisker plot (boxes represents the 25–75th percent distribution with the mean as a horizontal line, whiskers represent the distribution of all values) with a statistically significant difference (Mann–Whitney U test, p-value < 2.2 × 10^−16). […] Error bars represent upper and lower limits of the StDev (n = 9). […] The resistance index (EC50 in r22/EC50 in WT) are shown for each compound. TEXT PRINTED IN THE PICTURE: (c) 700022: 4.1 | (c) 700107: 4.1 | (c) 700136: 5.3 | (c) 700240: 5.3 | (f) 700022: 42.1 | (f) Milt: 17.9 | (f) Pent: 0.75 | (f) AmpB: 1.22 DOUBTS OF THE COPYIST ABOUT THIS PICTURE: Panels c and f: the numbers printed above the bar pairs have no measure or unit printed with them in the picture.
L. mexicana parasites were grown in increasing concentrations of 700022 in a stepwise manner, as previously described. […] A dose response assay of the newly selected promastigotes was completed as stated above, with the exception of the seeding density of 1 × 10^5 cells/mL. At this point, the drug pressure was increased to the concentration of the new EC50 value.

[2] = system: T. evansi bloodstream form; test: Initial screen, T. evansi bloodstream form, Alamar Blue; format: cell-based, Trypanosoma evansi; details: Trypanosoma evansi; for activity at 1 µM: initial screen; for inhibition of growth at 1 µM: read-out: initial hit T.e
Description: (§1) 634 compounds from the PhytoQuest Phytopure temperate plant natural product library were screened for growth inhibitory activity against L. mexicana axenic amastigotes, T. brucei bloodstream form, intraerythrocytic asexual P. falciparum (at 2 μM) and T. evansi bloodstream form parasites (at 1 μM). […] Our initial hits were defined as reducing growth of the parasite by ≥50%.
(§2) L. mexicana strain MNYC/BZ/62/M379 and L. donovani strain LdBOB (a clonal line from strain MHOM/SD/62/1S-CL2) were maintained in vitro in the procyclic promastigote stage. Parasites were cultivated at 26 °C in Schneider’s medium (Gibco) pH 7.0 containing 10% FBS, 100 U/mL penicillin (Lonza) and 100 μg/mL streptomycin (Lonza) as previously described. Differentiation into axenic amastigotes was performed as described previously. Briefly, axenic amastigotes were cultivated at 32 °C in Schneider’s medium pH 5.5 containing 10% FBS, 100 U/mL penicillin (Lonza) and 100 μg/mL streptomycin (Lonza). Bloodstream form T. brucei brucei strain Lister 427 and T. evansi strain Antat 3/3 [59] were maintained in vitro at 37 °C with 5% (v/v) CO2 in HMI-11 medium supplemented with 10% FBS, as described elsewhere. Intraerythrocytic cultures of P. falciparum Dd2^Luc strain [62] were maintained at 37 °C in a 1% O2:3% CO2:96% N2 atmosphere in RPMI-1640 containing 37.5 mM HEPES, 5 mM NaOH, 10 mM D-glucose, 2 mM L-glutamine, 100 μM hypoxanthine, […] gentamicin sulfate, 5% human serum and 5% albumax-II and 2% haematocrit erythrocytes. When required, cultures were synchronised to ring stages using the sorbitol lysis method. Preliminary cytotoxicity screening was assessed using HepG2 cells. These cells were maintained in vitro at 37 °C with 5% (v/v) CO2 in DMEM (Sigma) pH 7 supplemented with 10% FBS, 100 U/mL penicillin (Lonza) and 100 μg/mL streptomycin (Lonza), as previously described. The human monocyte cell line THP-1 [68] was maintained in vitro by culturing at 37 °C with 5% (v/v) CO2 in complete RPMI medium (Dutch modified RPMI-1640 (Gibco) containing 10% FBS and 2 mM L-glutamine (Gibco)). Differentiation of THP-1 cells into macrophages was performed by seeding 2.5 × 10^5 cells/mL in complete RPMI media, supplemented with 20 ng/mL phorbol 12-myristate 13-acetate (PMA), followed by incubation at 37 °C with 5% (v/v) CO2 for 24 h.
(§3) The library was provided as 634 non-polar compounds (1 mg/mL in DMSO). Initial screening was performed in a 96-well plate with 200 μL of parasite culture. The initial screen used each compound at a final concentration of 2 μM for L. mexicana axenic amastigotes, T. brucei and P. falciparum, and at 1 μM for T. evansi. L. mexicana axenic amastigotes were plated at 1 × 10^6 cells/mL, incubated for 72 h, and the Alamar Blue assay was used to assess parasite growth. Each compound was tested in triplicate, with two biological replicates (n = 6). T. brucei and T. evansi were plated at 1×10^5 cells/mL for 48 h, and the Alamar Blue assay was used to assess parasite growth. Each compound was tested in triplicate with two biological replicates (n = 6). Intraerythrocytic P. falciparum in the trophozoite stage were seeded at 0.5% parasitaemia and 2% haematocrit for 48 h, and the Malaria SYBR-Green I fluorescence assay was used to assess parasite growth. Each compound was tested in duplicate with two biological replicates (n = 4). Negative controls comprised an equivalent volume of DMSO (equivalent of 1% v/v) to normalise the growth data. Data points >100% growth and <0% growth were tabulated as 100% and 0%, respectively. Some compounds were not tested in all parasite lines as there was insufficient material remaining.

[3] = system: T. brucei bloodstream form; test: Initial screen, T. brucei bloodstream form, Alamar Blue; format: cell-based, Trypanosoma brucei brucei; details: initial screen; for activity at 2 µM: Trypanosoma brucei
Description: as §1, §2, §3

[4] = system: P. falciparum Dd2Luc intraerythrocytic trophozoites; test: Initial screen, intraerythrocytic P. falciparum, Malaria SYBR-Green I fluorescence assay; format: cell-based, Plasmodium falciparum; details: for activity at 2 µM: Plasmodium falciparum
Description: as §1, with “≥50%. […]” for “≥50%.”
as §3, with “The PhytoQuest Phytopure library is a commercially available collection of purified compounds isolated predominantly from temperate zone plants, with structures confirmed by NMR and mass spectrometry. The library” for “The library”

T. evansi = test: Concentration-response EC50, T. evansi; format: cell-based; details: Trypanosoma evansi, 48 h, read-out: T. evansi EC50
Description: (§4) Initial hits from the parasite panel screen were taken forward in log concentration versus normalised response assays to estimate the half maximal effective concentration (EC50) in hit species as well as the half maximal cytotoxic concentrations (CC50) in the human hepatoma cell line HepG2 as a preliminary test for selectivity. Using CC50/EC50 to define the selectivity index (SI), the selectivity for each compound in a defined species compared to a human cell line was estimated and compared to the EC50 (Figure 3).
(§5) EC50 values were determined by serial two-fold dilution of each compound in 96 well plates. Culture conditions and viability assays were as stated for the initial screen, with some exceptions. L. mexicana and L. donovani axenic amastigotes were seeded at 2 × 10^6 cell/s mL, T. brucei and T. evansi were seeded at 2 × 10^5 cells/mL. For cytotoxicity studies, HepG2 cells were seeded at 1 × 10^5 cells/mL, incubated for 48 h and viability was assessed using the Alamar Blue assay [66, 67]. […] Normalised growth and viability data (compared to untreated controls) were plotted against Log10 concentration to estimate EC50 in GraphPad (Prism v6).

[5] = system: L. mexicana axenic amastigotes; test: Initial screen, L. mexicana axenic amastigotes, Alamar Blue; format: cell-based, Leishmania mexicana; details: for decrease of L. mexicana survival: 2 μM, 72 h; for activity at 2 µM: Leishmania mexicana
Description: as §1, with “≥50%. […]” for “≥50%.”
as §3, with “The PhytoQuest Phytopure library is a commercially available collection of purified compounds isolated predominantly from temperate zone plants, with structures confirmed by NMR and mass spectrometry. The library” for “The library”

[6] = system: L. mexicana axenic amastigotes; test: Concentration-response EC50, L. mexicana axenic amastigotes (WT); format: cell-based, Leishmania mexicana; details: Leishmania mexicana
Description: as §4, §5

[7] = mean % growth compared to a normalised control with same concentration of DMSO solvent, read-out: % growth T. evansi
[8] = 48 h, read-out: %growth P. falciparum, mean % growth compared to a normalised control with same concentration of DMSO solvent, initial screen
[9] = read-out: % growth L. mexicana, mean % growth compared to a normalised control with same concentration of DMSO solvent, initial screen
[10] = mean % growth compared to a normalised control with same concentration of DMSO solvent, initial screen

C[C@@H]1[C@H](O)[C@@H](C)/C=C/C=C/C=C/C=C/C=C/C=C/C=C/[C@H](O[C@@H]2O[C@H](C)[C@@H](O)[C@H](N)[C@@H]2O)C[C@@H]2O[C@](O)(C[C@@H](O)C[C@@H](O)[C@H](O)CC[C@@H](O)C[C@@H](O)CC(=O)O[C@H]1C)C[C@H](O)[C@H]2C(=O)O [Amphotericin B, reference compound]
EC50 [1]: 0.28 µM

CC1=CC(CC(C)C2CCC3(C)C4=CCC5C(C)(C)C(=O)CCC5(C)C4CCC23C)OC1=O (stereo not shown) [Compound 700016]
activity at 1 µM [2, 7]: 40.5%
inhibition of growth at 1 µM ([2]; 1 μM, x = initial hit): > 50%
activity at 2 µM ([3]; mean % growth compared to a normalised control with same concentration of DMSO solvent, read-out: % growth T. b. brucei): 75.7%
activity at 2 µM [4, 8]: 104%
EC50 (T. evansi; bloodstream form): > 3 µM
decrease of L. mexicana survival [5]: more than 50%
activity at 2 µM [5, 9]: 47.1%

CC(=O)OC1C(O)C(C)OC(OC2C(OC(=O)C3CC[C@@H]4[C@H](C3)OC3(CC(OC(=O)/C=C/c5ccccc5)[C@@H](C)CO3)C43CO3)OC(CO)C(O)C2OC(C)=O)C1O (stereo partly shown) [Compound 700063]
activity at 1 µM ([2]; read-out: % growth T. evansi, mean % growth compared to a normalised control with same concentration of DMSO solvent): 44.5%
inhibition of growth at 1 µM [2]: > 50%
% growth T. b. brucei ([3]; mean % growth compared to a normalised control with same concentration of DMSO solvent): 95.6%
activity against P. falciparum in screen ([4]; 2 μM): neither 700014 or 700063 showed activity against P. falciparum
%growth P. falciparum [4, 10]: 104.8%
EC50 (T. evansi): > 10 µM
decrease of L. mexicana survival [5]: ~70%
% growth L. mexicana [5, 10]: 70.5%

CC(C)=CCc1c(O)cc2oc(-c3ccc(O)c(O)c3)c(O)c(=O)c2c1O [Compound 700326]
activity at 1 µM [2, 7]: 34.7%
inhibition of growth at 1 µM ([2]; 1 μM, x = initial hit): > 50%
activity at 2 µM [4, 8]: 63.1%
EC50 (T. evansi; bloodstream form): 1.8 µM
activity at 2 µM [5, 9]: 27%

CC(C)c1cc(CCC2C(=O)CCCC2(C)C)c(O)cc1O (stereo not shown) [Compound 700454]
activity at 1 µM ([2]; compared to a normalised control with same concentration of DMSO solvent, read-out: mean % growth, T. evansi): 43.7%
inhibition of growth at 1 µM ([2]; 1 μM, x = initial hit): > 50%
activity at 2 µM ([3]; compared to a normalised control with same concentration of DMSO solvent, read-out: mean % growth, T. b. brucei): 77.3%
reduction of P. falciparum growth ([4]; 2 μM, 48 h, Dd2Luc): 5%
activity at 2 µM ([4]; 48 h, read-out: mean % growth, P. falciparum, initial screen, compared to a normalised control with same concentration of DMSO solvent): 95.4%
EC50 (T. evansi; bloodstream form): 3.3 µM
activity at 2 µM ([5]; read-out: mean % growth, L. mexicana, initial screen, compared to a normalised control with same concentration of DMSO solvent): 47.9%

CCCCCCCCCCCCCCCCOP(=O)([O-])OCC[N+](C)(C)C [Miltefosine, reference compound]
EC50 ([6]; read-out: WT EC50, L. mexicana WT axenic amastigotes): 1.1 µM
r22 28 weeks RI (resistance index, EC50 in r22/EC50 in WT) [1]: 17.9
EC50 [1]: 20 µM

N=C(N)c1ccc(OCCCCCOc2ccc(C(=N)N)cc2)cc1 [Pentamidine, reference compound]
EC50 ([6]; L. mexicana WT axenic amastigotes, read-out: WT EC50): 6.8 µM
r22 28 weeks RI (resistance index, EC50 in r22/EC50 in WT) [1]: 0.75
EC50 [1]: 5.1 µM
